# Where a name gives a salt, the structure may show the parent alone.
# Legend:
# alkaline phosphatase = alkaline phosphatase chemiluminescence assay (light emission, Turner 20E Luminometer; sensitivity plot); type: biochemical; conditions: for light emission upon reaction with alkaline phosphatase: peaks collected from preparative HPLC (FIG. 1), lyophilized, tested as substrate, FIG. 2
# Text: Another such method involves testing the 1,2-dioxetane derivative as a substrate for an enzyme in a chemiluminescence assay (see for example, Example 2 infra), and comparing its behavior to that of an authentic sample of highly pure substrate in the same assay. The light intensity produced per unit amount of the substrate is directly proportional to the degree of purity of the substrate, when compared to the light intensity produced by the highly pure sample. When the light intensity produced from pure and impure substrate is plotted as a function of the molar concentration of the biochemical analyte, a family of parallel sigmoid curves is produced; this is called a sensitivity plot. The sensitivity curve for an impure sample will be shifted to the right of the curve for a pure sample; that is, the assay is less sensitive when using the impure sample. The greater the degree of impurity, the greater the shift of the sensitivity curve to the right. Purification of the crude reaction products of the chemical syntheses of the chemiluminescent, water-soluble 1,2 dioxetane derivatives by the methods of this invention will increase the sensitivity of the assay using the dioxetane product by at least 2-fold, preferably about 10-fold (see Example 6, FIG. 9).
# The breakdown product and the AMPPD from FIG. 1 were collected, dried by lyophilization, then tested as a substrate for alkaline phosphatase in a chemiluminescence assay. The details of this assay are provided in copending U S. Pat. Application Ser. No. 889,823, which is incorporated herein by reference to the extent that it discloses assay conditions for alkaline phosphatase. Light emission was determined in a Turner 20E Luminometer.
# The alkaline phosphatase chemiluminescent assay was applied to a relatively crude sample of AMPPD from Example 4, FIG. 5, and to an HPLC purified sample of AMPPD from Example 3, FIG. 3D. Light intensity produced in the chemiluminescent assay was plotted as a function of the molar concentration of alkaline phosphatase in the assay mixture (FIG. 9).
# [1] = stability of the dioxetane in solution or after lyophilization, followed by analytical HPLC; type: physicochemical
# Procedure: Peak fractions from FIG. 3C were combined, lyophilized, then analyzed by analytical HPLC on a reversed phase PLRP-S analytical column with a gradient of acetonitrile in 0.1% NaHCO3 buffer, pH 8.6, as the mobile phase.
# The AMPPD fraction from FIG. 4 was collected, freeze-dried, then fractionated on an analytical size column of Dynamax C-18 using as the mobile phase a gradient of acetonitrile in 0.1% ammonium acetate, pH 7.0.
# The 6 minute AMPPD peak from FIG. 4, which eluted with 31% acetonitrile in 0.1% ammonium acetate buffer, pH 7.0, was stored overnight in this solution without concentration, then chromatographed by HPLC on an analytical Dynamax C-18 column in a gradient of acetonitrile in 0.1% ammonium acetate buffer, pH 7.0 (FIG. 6).
# When, however, AMPPD in the 6-minute peak from preparative HPLC (FIG. 4) was stored in the presence of the ammonium acetate column effluent for long periods of time at 4° C.
SMILES,light emission upon reaction with alkaline phosphatase (alkaline phosphatase),"sensitivity of the chemiluminescent assay relative to crude AMPPD (alkaline phosphatase; HPLC purified sample (FIG. 3D) vs crude sample (FIG. 5), at all concentrations of alkaline phosphatase, FIG. 9)",lowest concentration of alkaline phosphatase that could be detected (alkaline phosphatase; with purified AMPPD as substrate),"stability on brief (overnight) storage in ammonium acetate buffer ([1]; 31% acetonitrile in 0.1% ammonium acetate buffer, pH 7.0, without concentration, FIG. 6)","stability in water ([1]; desalted and non-desalted preparations, analytical HPLC on PLRP-S, FIG. 3D)","stability after lyophilization in the presence of ammonium ions ([1]; freeze-dried from 0.1% ammonium acetate buffer, pH 7.0, analytical HPLC on Dynamax C-18, FIG. 5)","stability on long-term storage in ammonium acetate column effluent ([1]; long periods of time at 4° C. in the dark, analytical HPLC on Dynamax C18, FIG. 7)"
COC(=O)c1cccc(OP(=O)(O)O)c1 [Breakdown Product],no light emission,,,,,,
"COC1(c2cccc(OP(=O)(O)O)c2)OOC12C1CC3CC(C1)CC2C3 (centres unmarked) [AMPPD, 3-(2'-spiroadamantane)-4-methoxy-4-(3""-phosphoryloxy)phenyl-1,2-dioxetane disodium salt]",typical of AMPPD,at least an order of magnitude greater,about 10^-15 M,did not lead to significant breakdown,stable for long periods,unstable,increased breakdown

# Source: patent US4931569A, “Purification of stable water-soluble dioxetanes” (Tropix, Inc., priority 1988, dated 1990)
